Structures can show the parent of a compound that is named as a salt.
biological target: T1, FAAH (Homo sapiens, UniProt O00519); assay: Screening for an FAAH activity-inhibiting substance with human bladder epithelial cancer-derived cell line 5637 cells (IC50); format: cell-based; conditions: FAAH activity in human bladder epithelial cancer-derived 5637 cells, 37° C., 30 minutes
T1 construct: host or cells: 5637 human bladder epithelial cancer-derived cells, not transfected
T1 sequence (O00519 1-579): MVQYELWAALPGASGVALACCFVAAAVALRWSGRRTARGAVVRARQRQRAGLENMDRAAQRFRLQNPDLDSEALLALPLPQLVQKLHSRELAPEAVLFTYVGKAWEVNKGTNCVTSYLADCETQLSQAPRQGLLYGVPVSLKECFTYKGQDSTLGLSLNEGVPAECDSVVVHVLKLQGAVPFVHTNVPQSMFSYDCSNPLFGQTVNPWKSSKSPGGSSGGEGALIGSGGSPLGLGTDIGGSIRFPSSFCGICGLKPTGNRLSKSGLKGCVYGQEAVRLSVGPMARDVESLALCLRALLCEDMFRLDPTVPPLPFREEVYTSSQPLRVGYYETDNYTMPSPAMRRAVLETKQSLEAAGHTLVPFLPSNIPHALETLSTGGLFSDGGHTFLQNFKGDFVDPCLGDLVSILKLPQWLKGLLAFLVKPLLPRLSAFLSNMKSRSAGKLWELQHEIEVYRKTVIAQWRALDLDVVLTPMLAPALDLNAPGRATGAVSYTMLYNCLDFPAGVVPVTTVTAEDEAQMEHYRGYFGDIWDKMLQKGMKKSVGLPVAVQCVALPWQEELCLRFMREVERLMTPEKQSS
Protocol: Screening for an FAAH Activity-Inhibiting Substance with a Human Bladder Epithelial Cancer-Derived Cell
(1) Screening for an FAAH Activity Inhibiting Substance
Human bladder epithelial cancer-derived cell line 5637 cells (HTB-9; ATCC) were seeded on a 48-well cell culture plate in an amount of 1×10^5 cell/well, using 10% fetal bovine serum (HyClone)-containing RPMI1640 medium (Invitrogen Corporation). After incubated at 37° C. for 12 hours or longer, the cells were washed with 400 μl/well of a buffer (Hank's Balanced Salt Solution, 20 mM Hepes-NaOH (pH 7.4)). A test substance dissolved in DMSO was added to a substrate solution (the above buffer containing 3 μCi/ml radiolabeled anandamide (Anandamide [ethanolamine 1-^3H]) and 10 μM anandamide) so as to have a concentration from 0.003 nM to 30 nM. As a control, DMSO alone was added. 100 μl/well of the substrate solution was added to the above cells, and incubated in a CO2 incubator at 37° C. for 30 minutes. Next, the cell culture plate was transferred onto ice, and the substrate solution was removed by suction; and 75 μl/well of a cytolytic solution (the above buffer containing 0.5% Triton X-100, and 10 μM of FAAH-inhibitory activity-having compound, 3′-carbamoylbiphenyl-3-yl ester (URB597; Cayman chemical; Kathuria et al., Nature Med., Vol. 9, pp. 76-81, 2003)) was added thereto, followed by stirring. The resulting cell lysate in every well was individually transferred into a 1.5 ml sample tube, to which was added 150 μl of 1:1 (ratio by volume) chloroform/methanol solution, followed by vortexing. This was centrifuged (15000 rpm, 2 minutes), whereby the decomposed product, ethanolamine (ethanolamine 1-^3H) was separated in the upper layer (water/methanol layer) and the unreacted radiolabeled anandamide was in the lower layer (chloroform layer). 25 μl of the upper layer was transferred into a 96-well organic solvent-resistant white microplate (PicoPlate-96; Perkin Elmer, Inc.), 150 μl of Microscint-20 (Perkin Elmer, Inc.) was added thereto, and this was measured with a microplate scintillation counter (TopCount™; Beckman Coulter, Inc.). As compared with the control, the substance that gave a decreased value was selected as an FAAH activity-inhibiting substance.
(2) Measurement of the IC50 Value of the FAAH Activity Inhibiting Substance
The compound dissolved in DMSO to have a concentration of 10 mM was dissolved in the substrate solution so as to have a varying concentration from 0.003 nM to 30 nM. According to the method mentioned above, the compound was analyzed for its influence on FAAH activity. As a negative control, DMSO was used. As a positive control, URB597 was added to the substrate solution to have a concentration of 10 μM. Based on the measured value of the positive control, 0%, and on the measured value of the negative control, 100%, the IC50 value of the test substance was obtained. Furthermore, Ex represents Example No. as denoted below.

IC50 [nM] | Structure (SMILES)
0.7 | O=C(Nc1cnccn1)N1CCN(C(=O)c2ccnc(OCCC3CCCCC3)c2)CC1 [Example 38, 4-[2-(2-cyclohexylethoxy)isonicotinoyl]-N-pyrazin-2-ylpiperazine-1-carboxamide]
0.16 | O=C(Nc1cnccn1)N1CCN(C(=O)c2cccc(OCCC3CCCCC3)c2)CC1 [Example 210]

Second part, the molecule before the results:

Structure (SMILES) | IC50 [nM]
O=C(Nc1cccnc1)N1CCN(Cc2ccnc(OCCC3CCCCC3)c2)CC1 [Example 30, 4-{[2-(2-cyclohexylethoxy)pyridin-4-yl]methyl}-N-pyridin-3-ylpiperazine-1-carboxamide trihydrochloride] | 0.28
O=C(Nc1ncccn1)N1CCN(C(=O)c2cccc(OCCC3CCCCC3)c2)CC1 [Example 155] | 0.54
CN(CCC1CCCCC1)c1ccc(C(=O)N2CCN(C(=O)Nc3cccnc3)CC2)cc1 [Example 334] | 0.18
COCC(=O)NC(=O)N1CCN(Cc2cccc(OCCC3CCCCC3)c2)CC1 [Example 439] | 0.43

— US20110172230A1, “UREA COMPOUND OR SALT THEREOF” (priority 2006, published 2011)
